The text below walks through data of ChEMBL document CHEMBL1128836, “Synthesis of prodrugs and a mutual prodrug of chlorzoxazone and acetaminophen based on a masked benzoxazolone” (Bioorg Med Chem Lett, 1995).

A short description of data set [1]: Half life period in phosphate buffer at pH 7.4. The settings on record: for T1/2: buffer. Type of data set: ADME.
Data set [2] in a line: Half life period in rat plasma at 37 degree Celsius temperature (pH 7.4). Format: ADME, organism-based.
The species named for data set [3] is Homo sapiens. As to the kind of experiment: Half life period in human plasma at 37 degree Celsius temperature (pH 7.4).
The nature of data set [4]: Half life period in rat plasma at 25 degree Centigrade temperature (pH 7.4). Format: ADME, organism-based.
Data set [5] is described as follows: Half life period in phosphate buffer at pH 7.4 & 25 degrees C. Format: ADME.
The species entered for data set [6] is Homo sapiens. As to the kind of experiment: Half life period in human plasma at 25 degree Celsius temperature (pH 7.4).

As for `O=C(Nc1cc(Cl)ccc1O)OCC(Cl)(Cl)Cl`, the figures for the half-life (in data set [1]; in data set [2]; in the data set listed under Homo sapiens [3]) were 3.2 min, 7.5 min and 10.1 min, respectively.

Compound `O=C(Nc1cc(Cl)ccc1O)Oc1cccc(C(F)(F)F)c1` returned a T1/2 in data set [1] of 0.0517 min.

On to `CC#CCOC(=O)Nc1cc(Cl)ccc1O`, for which, in data set [1] (phosphate buffer), the half-life (commonly how long it takes for the measured level to halve) was 566 min.

Take `C#CCOC(=O)Nc1cc(Cl)ccc1O`: the half-life in data set [1] (phosphate buffer) was 108 min.

For the compound `O=C(Nc1cc(Cl)ccc1O)Oc1ccccc1`, in data set [1] (phosphate buffer), the half-life is 0.2 min.

Compound `O=C(Nc1cc(Cl)ccc1O)OCC(F)(F)F` gave a half-life in data set [1] of 2.58 min.

`O=C(Nc1cc(Cl)ccc1O)Oc1cccc(Cl)c1`: the T1/2 in data set [1] was 0.0633 min.

Consider `O=C(Nc1cc(Cl)ccc1O)OCC(Cl)Cl`, for which the half-life in data set [1] is 42.4 min; in data set [2] it was 53.8 min; in the data set listed under Homo sapiens [3], 105 min.

In data set [1] (phosphate buffer), `O=C(Nc1cc(Cl)ccc1O)OCCCl` showed a half-life of 1310 min.

Regarding `CC(=O)Nc1ccc(OC(=O)Nc2cc(Cl)ccc2O)cc1`, the half-life in data set [4] is 0.833 min; in data set [1] (phosphate buffer) it was 0.118 min; in data set [5], 0.6 min; in the data set listed under Homo sapiens [6], 1.1 min.

The compound `CC(=O)Nc1cccc(OC(=O)Nc2cc(Cl)ccc2O)c1` gave a half-life in data set [1] (phosphate buffer) of 0.125 min.
